In US20180290977A1, “KDM4 INHIBITORS” (Albert-Ludwigs-University Freiburg, priority 2017, published 2018):
Read-outs that look alike come from different tables or passages of the source.

Target: T1, KDM4B (Homo sapiens, UniProt O94953)
T1 sequence (O94953 1-1096): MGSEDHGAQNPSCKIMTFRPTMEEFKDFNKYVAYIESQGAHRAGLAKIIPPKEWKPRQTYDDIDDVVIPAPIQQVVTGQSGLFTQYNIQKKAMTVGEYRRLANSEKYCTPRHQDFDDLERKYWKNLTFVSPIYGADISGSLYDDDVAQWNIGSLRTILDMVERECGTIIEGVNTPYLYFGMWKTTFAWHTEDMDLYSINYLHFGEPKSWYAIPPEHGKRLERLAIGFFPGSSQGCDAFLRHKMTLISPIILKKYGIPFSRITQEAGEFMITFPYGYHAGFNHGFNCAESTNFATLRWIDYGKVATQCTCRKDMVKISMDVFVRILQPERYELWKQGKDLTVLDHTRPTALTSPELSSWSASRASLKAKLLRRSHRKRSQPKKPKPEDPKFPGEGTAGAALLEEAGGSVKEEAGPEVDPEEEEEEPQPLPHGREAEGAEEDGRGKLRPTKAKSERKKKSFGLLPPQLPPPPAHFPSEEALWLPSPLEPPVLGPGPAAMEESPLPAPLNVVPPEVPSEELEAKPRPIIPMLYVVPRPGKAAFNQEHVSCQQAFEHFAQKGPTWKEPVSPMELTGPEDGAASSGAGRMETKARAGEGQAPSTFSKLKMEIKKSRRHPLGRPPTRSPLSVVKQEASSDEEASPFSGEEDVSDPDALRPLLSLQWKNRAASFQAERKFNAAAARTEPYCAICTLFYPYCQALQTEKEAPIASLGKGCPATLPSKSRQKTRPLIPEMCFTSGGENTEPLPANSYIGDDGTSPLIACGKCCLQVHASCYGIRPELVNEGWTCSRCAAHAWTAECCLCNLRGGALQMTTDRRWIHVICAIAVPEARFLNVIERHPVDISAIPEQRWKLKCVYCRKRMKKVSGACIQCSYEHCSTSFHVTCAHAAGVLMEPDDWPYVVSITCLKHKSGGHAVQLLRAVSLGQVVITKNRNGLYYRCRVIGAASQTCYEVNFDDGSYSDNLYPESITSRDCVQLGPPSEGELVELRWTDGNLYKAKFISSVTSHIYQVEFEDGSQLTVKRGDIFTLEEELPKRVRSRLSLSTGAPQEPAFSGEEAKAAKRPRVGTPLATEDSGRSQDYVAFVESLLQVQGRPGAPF
Assay: KDM demethylase inhibition (IC50)
Type: biochemical

CN(c1ccccc1)c1ccc2c(c1)CCC[C@H]2CNc1cnccc1C(=O)O [Compound I, 3-({[(1R)-6-[methyl(phenyl)amino]-1,2,3,4-tetrahydronaphthalen-1-yl]methyl}amino)pyridine-4-carboxylic Acid]
IC50 (read-out: Compound I IC50): 56 nM | IC50 (read-out: IC50, demethylase activity): < 105 nM
